# Assays:
# [1] = tested on: CYP450 enzymes; test: CYP450 enzyme inhibition; format: in vitro ADME
# [2] = tested on: Kasumi-1; test: XTT antiproliferative assay; format: cell-based; conditions: Homo sapiens, 120 h; Kasumi-1, Acute myeloid leukemia; 5 days incubation
# Procedure: (§1) Antiproliferative activity of LOR-253 was determined by XTT assay as follows. Adherent cells (2×10^3/well) in 100 μL of growth medium were seeded in 96-well cell culture plates and incubated overnight at 37° C. The medium was removed and replaced with a total volume of 100 μL growth medium containing LOR-253 (or 0.1% DMSO vehicle control), as described in the respective experiments. Suspension cells were plated (4-6×10^3/well) in 50 μL growth medium, and 50 μL growth medium containing LOR-253 (or 0.1% DMSO vehicle control) was added to each well. After incubation of the cells at 37° C. for 5 days, cell viability was quantitated with the use of sodium 3′-[1-(phenylamino-carbonyl)-3,4-tetrazolium}-bis(4-methoxy-6-nitro)benzene sulfonic acid hydrate (XTT) colorimetric assay (Roche). XTT labeling reagent (1 mg/mL) was mixed with electron-coupling reagent, following the manufacturer's instructions, and 50 μL of the mixture was added directly to the cells. The plates were further incubated at 37° C. for 4 h, and the absorbance of each well was measured at 490 nm with a multiwell spectrophotometer (Bio-Tek Instruments Inc.). The data were adjusted relative to the blank and expressed as a percentage of cell growth compared with the vehicle control. (Ref. Huesca et al., Mol Cancer Ther. 2009. 8:2586-96; Lorus publication on LOR-133)
# [3] = tested on: Raji; test: XTT antiproliferative assay; format: cell-based; conditions: Homo sapiens, 120 h, Non-Hodgkin's Lymphoma, 5 days incubation
# Procedure: as §1
# [4] = tested on: Ramos; test: XTT antiproliferative assay; format: cell-based; conditions: Homo sapiens, 120 h, Non-Hodgkin's Lymphoma, 5 days incubation
# Procedure: as §1
# [5] = tested on: MM.1R; test: XTT antiproliferative assay; format: cell-based; conditions: 120 h, Multiple myeloma, 5 days incubation
# Procedure: as §1
# [6] = tested on: HEL92.1.7; test: XTT antiproliferative assay; format: cell-based; conditions: Homo sapiens, HEL 92.1.7, 120 h; HEL92.1.7, Acute myeloid leukemia; 5 days incubation
# Procedure: as §1
# [7] = tested on: MOLT-4; test: XTT antiproliferative assay; format: cell-based; conditions: Homo sapiens, 120 h; MOLT-4, Acute lymphoblastic leukemia; 5 days incubation
# Procedure: as §1
# [8] = tested on: THP-1; test: XTT antiproliferative assay; format: cell-based; conditions: Homo sapiens, 120 h; THP-1, Acute myeloid leukemia; 5 days incubation
# Procedure: as §1
# [9] = tested on: EOL-1; test: XTT antiproliferative assay; format: cell-based; conditions: Homo sapiens, EOL1, 120 h; EOL-1, Acute myeloid leukemia; 5 days incubation
# Procedure: as §1
# [10] = tested on: Jurkat; test: XTT antiproliferative assay; format: cell-based; conditions: Homo sapiens, 120 h, Acute lymphoblastic leukemia, 5 days incubation
# Procedure: as §1
# [11] = tested on: HL-60; test: XTT antiproliferative assay; format: cell-based; conditions: Homo sapiens, 120 h; HL-60, Acute myeloid leukemia; 5 days incubation
# Procedure: as §1
# [12] = tested on: MV-4-11; test: XTT antiproliferative assay; format: cell-based; conditions: Homo sapiens, MV4-11, 120 h; MV-4-11, Acute myeloid leukemia; 5 days incubation
# Procedure: as §1
# [13] = tested on: K562; test: XTT antiproliferative assay; format: cell-based; conditions: Homo sapiens, 120 h; K562, Chronic Myelogenous Leukemia; 5 days incubation
# Procedure: as §1
# [14] = tested on: Mino; test: XTT antiproliferative assay; format: cell-based; conditions: Homo sapiens, 120 h, Non-Hodgkin's Lymphoma, 5 days incubation
# Procedure: as §1
# [15] = tested on: CA46; test: XTT antiproliferative assay; format: cell-based; conditions: Homo sapiens, 120 h; CA46, Non-Hodgkin's Lymphoma; 5 days incubation
# Procedure: as §1
# [16] = tested on: MOLM13 (CD47+); test: XTT antiproliferative assay; format: cell-based; conditions: Homo sapiens, MOLM-13, 120 h, Acute myeloid leukemia, 5 days incubation
# Procedure: as §1
# [17] = tested on: U266B1; test: XTT antiproliferative assay; format: cell-based; conditions: 120 h; U266B1, Multiple myeloma; 5 days incubation
# Procedure: as §1
# [18] = tested on: HuNS1; test: XTT antiproliferative assay; format: cell-based; conditions: 120 h; HuNS1, Multiple myeloma; 5 days incubation
# Procedure: as §1
# [19] = tested on: CCRF-CEM; test: XTT antiproliferative assay; format: cell-based; conditions: Homo sapiens, 120 h, Acute lymphoblastic leukemia, 5 days incubation
# Procedure: as §1
# [20] = tested on: NOMO-1; test: XTT antiproliferative assay; format: cell-based; conditions: Homo sapiens, 120 h; NOMO-1, Acute myeloid leukemia; 5 days incubation
# Procedure: as §1
# [21] = tested on: RL; test: XTT antiproliferative assay; format: cell-based; conditions: Homo sapiens, 120 h, Non-Hodgkin's Lymphoma, 5 days incubation
# Procedure: as §1
# [22] = tested on: DB; test: XTT antiproliferative assay; format: cell-based; conditions: Homo sapiens, 120 h, Non-Hodgkin's Lymphoma, 5 days incubation
# Procedure: as §1
# [23] = tested on: OCI-AML2; test: XTT antiproliferative assay; format: cell-based; conditions: Homo sapiens, 120 h; OCI-AML2, Acute myeloid leukemia; 5 days incubation
# Procedure: as §1
# [24] = tested on: KG-1; test: XTT antiproliferative assay; format: cell-based; conditions: Homo sapiens, 120 h; KG-1, Acute myeloid leukemia; 5 days incubation
# Procedure: as §1
# [25] = tested on: Toledo; test: XTT antiproliferative assay; format: cell-based; conditions: Homo sapiens, 120 h, Non-Hodgkin's Lymphoma, 5 days incubation
# Procedure: as §1
# [26] = tested on: NB4; test: XTT antiproliferative assay; format: cell-based; conditions: Homo sapiens, NB-4, 120 h; NB4, Acute myeloid leukemia; 5 days incubation
# Procedure: as §1
# [27] = tested on: SKM-1; test: XTT antiproliferative assay; format: cell-based; conditions: Homo sapiens, 120 h; SKM-1, Acute myeloid leukemia; 5 days incubation
# Procedure: as §1
# [28] = tested on: KLF4 protein; test: Pharmacodynamic response, KLF4 protein level in tumors; format: in vivo; conditions: mice; 1, 5 and 15 mg/kg for 5 consecutive days; 16 hours after last dose
# Procedure: To study the pharmacodynamic (PD) responses, mice were treated for 5 consecutive days with 1, 5, and 15 mg/kg LOR-253. Tumors were measured 16 hours after the last dose, and the KLF-4 protein level was measured.
compound,measurement,setting,value
Cc1[nH]c2ccc(F)cc2c1-c1nc2c3cccnc3c3ncccc3c2[nH]1 [LOR-253],inhibition of CYP450 enzymes,[1],no significant inhibition
same,IC50,[2],6.9 nM
same,IC50,[3],11 nM
same,IC50,[4],125 nM
same,IC50,[5],150 nM
same,IC50,[6],305 nM
same,IC50,[7],70 nM
same,IC50,[8],77 nM
same,IC50,[9],58 nM
same,IC50,[10],71 nM
same,IC50,[11],46 nM
same,IC50,[12],69 nM
same,IC50,[13],250 nM
same,IC50,[14],140 nM
same,IC50,[15],190 nM
same,IC50,[16],130 nM
same,IC50,[17],180 nM
same,IC50,[18],72 nM
same,IC50,[19],39 nM
same,IC50,[20],121 nM
same,IC50,[21],190 nM
same,IC50,[22],99 nM
same,IC50,[23],76 nM
same,IC50,[24],33 nM
same,IC50,[25],77 nM
same,IC50,[26],60 nM
same,IC50,[27],145 nM
same,average KLF4 protein levels in tumors,[28],increased in a dose-dependent manner

# From patent US20150104392A1, “COMPOSITIONS, BIOMARKERS AND THEIR USE IN THE TREATMENT OF CANCER” (Aptose Biosciences Inc., priority 2013, published 2015)
